From patent publication US4339442A, “Gynosaponins, their use and a process for preparing the same” (priority 1980, dated 1982) come the findings set out here.

What all share (type): cell-based, male wister rats
The test system of experiment [1] is fat cells. Nature of the experiment: Decomposition of the fat in the fat cell by ACTH. The settings on record: ACTH 1 μg/ml + saponin 20 μg/ml, 37° C., two hours; for inhibition at 20 µg/mL: Rattus norvegicus, 2 h, read-out: Rate of inhibition. As for the experimental part:
(§1) Fat tissues were separated from the epididymides of male wister rats weighing 150 to 180 g each, and fat cells were obtained therefrom in accordance with the Rodbell's method [M. Rodbell, J. Biol. Chem., 239, 375 (1964)]. A small section was prepared from 4 g of the fat tissue, and placed in 10 ml. of Krebs-Ringer bicarbonate buffer containing 0.4 g of albumin, 10 mg of collagenase and 5 mg of glucose, and having a pH value of 7.4. It was heated at 37° C. for 50 minutes, and subjected to centrifugal separation at 300 rpm, whereby a floating fat cell layer was separated. Added into the fat cell were 10 ml. of the aforesaid buffer (pH 7.4), and the solution was carefully stirred to wash the fat cell, followed by centrifugal separation at 300 rpm for 30 seconds. This procedure was repeated twice, whereby the fat cells were washed perfectly, and these fat cells were used for the tests.
The fat cells obtained by treating with collagenase were suspended in Krebs-Ringer bicarbonate buffer (KRB) having a pH value of 7.4. Placed into a test tube were 0.3 ml. of the solution thus obtained (containing 100 mg of fat cells), 0.1 ml. of ACTH solution containing 1 μg of ACTH, 0.1 ml. of each saponin solution containing 500 μg of saponin, and 0.3 ml. of a 5% alubumin solution in KRB, and having a pH value adjusted to 7.4. They were heated at 37° C. for two hours, and the amount of the resulting free fatty acid was determined in accordance with the Dole's method [V. P. Dole, J. Biol. Chem., 35, 150 (1958)].
Namely, 3 ml. of Dole's extract were separated into the reaction system, and 1 ml. of a thymol blue solution was added thereinto. Nitrogen was blown into the resulting solution, and the solution was titrated with a 0.008 N aqueous solution of sodium hydroxide, while it was being stirred. The amount of the resulting free fatty acid was determined in accordance with a calibration curve.
The rate of inhibition against fat decomposition was obtained in accordance with the following equation: [formula] wherein A stands for the amount of the free fatty acid formed by addition of ACTH along in the amount of 1 μg/ml.; and B stands for the amount of the free fatty acid formed by addition of ACTH and saponin in the amount of 1 μg/ml. and 20 μg/ml., respectively.

The test system of experiment [2] is fat cells. Nature of the experiment: Decomposition by adrenalin of the fat in the fat cells. The settings on record: adrenalin 1 μg/ml + saponin 20 μg/ml, 37° C., two hours; for inhibition at 20 µg/mL: Rattus norvegicus, 2 h, read-out: Rate of inhibition. As for the experimental part:
A small section was prepared from 4 g of the fat tissue, and placed in 10 ml. of Krebs-Ringer bicarbonate buffer containing 0.4 g of albumin, 10 mg of collagenase and 5 mg of glucose, and having a pH value of 7.4. […] Added into the fat cell were 10 ml. of the aforesaid buffer (pH 7.4), and the solution was carefully stirred to wash the fat cell, followed by centrifugal separation at 300 rpm for 30 seconds. This procedure was repeated twice, whereby the fat cells were washed perfectly, and these fat cells were used for the tests.
The fat cells obtained by treating with collagenase were suspended in Krebs-Ringer phosphate buffer (KRP) having a pH value of 7.4. Placed into a test tube were 0.3 ml. of the solution thus obtained, and containing 100 mg of fat cells, 0.1 ml. of an adrenalin solution containing 1 μg of adrenalin, 0.1 ml. of a saponin solution containing 20 μg of saponin, and 0.5 ml. of a 5% albumin solution in KRP, and having a pH value adjusted to 7.4. […] More specifically, 3 ml. of Dole's extract were placed in the reaction system, and after they were shaked for five minutes, 3 ml. of heptane were dispensed, and 1 ml. of a thymol blue solution was added thereinto. The resulting solution was titrated with a 0.008 N aqueous solution of sodium hydroxide, while it was being stirred with nitrogen, and the amount of the resulting free fatty acid was determined in accordance with a calibration curve.
The rate of inhibition was obtained in accordance with the equation shown at (1) above.

The subject of experiment [3] is fat cells. Nature of the experiment: Synthesis of fat from glucose in fat cells. Conditions: 20 μg/ml; for Power for synthesis of neutral fat from glucose: 37° C., half an hour; for activation at 20 µg/mL: Rattus norvegicus, 0.5 h, none = 100, read-out: Rate of promotion. The procedure: as §1
^14 C-glucose having its carbon atoms marked with radioactivity was reacted upon fat cells, and a Geiger count was read to determine the amount of the glucose participating in the fat synthesis and incorporated into the fat cells as a neutral fat, whereby gynosaponins were tested for their effects on the power of the glucose for fat synthesis.
More specifically, the fat cells obtained by treating with collagenase were suspended in KRB, and 0.35 ml. of the resulting solution containing 100 mg of fat cells was placed into a test tube with 0.1 ml. of each saponin solution containing 20 μg of saponin, 0.5 ml. of a 5% albumin solution in KRB, containing 10 mM glucose and having a pH value of 7.4, and 0.05 ml. of a ^14 C-glucose solution which was a 0.5 μCi KRP solution having a pH value of 7.4 and containing 10 mM glucose. They were heated at 37° C. for half an hour, and after 5 ml. of Dole's extract were added and the whole was shaked for five minutes, 3 ml. of heptane and 2 ml. of water were added, and the whole was shaked for five minutes. 3 ml. of a heptane layer were separated, and after an alkaline ethanol solution (0.5 N sodium hydroxide solution, 50 % ethanol solution) was added in the amount of 3 ml., the whole was shaked for five minutes. Then, 1 ml. of an ethanol layer was separated, and 10 ml. of a toluene scintillation solution were added thereinto, followed by determination according to the method of Skipski et al. [Biochem. Biophys. Acta, 106, 386 (1965)].

By inhibition is commonly meant the relative decrease from the control value, in per cent. For `CC(C)=CCC[C@](C)(O[C@@H]1O[C@H](CO[C@@H]2O[C@@H](C)[C@H](O)[C@@H](O)[C@H]2O)[C@@H](O)[C@H](O)[C@H]1O)[C@H]1CC[C@]2(C)[C@@H]1[C@H](O)C[C@@H]1[C@@]3(C)CC[C@H](O[C@@H]4O[C@H](CO)[C@@H](O)[C@H](O)[C@H]4O[C@@H]4O[C@H](CO)[C@@H](O)[C@H](O)[C@H]4O)C(C)(C)[C@@H]3CC[C@]12C` [gynosaponin E, 20S-Protopanaxadiol-3-O-[β-D-glucopyranosyl (1→2)-β-D-glucopyranoside]-20-O-[α-L-rhamnopyranosyl (1→6)-β-D-glucopyranoside]], in the experiment with fat cells [1], the “Free fatty acid formed by decomposition of fat” value (“Free fatty acid formed” for short) is recorded as 5.9 μ Eq/g and the inhibition at 20 µg/mL was 30%. In the experiment on fat cells [2], the inhibition at 20 µg/mL is 33% and the “Free fatty acid formed” value came out at 9.4 μ Eq/g. Further, in the experiment with fat cells [3], the “Power for synthesis of neutral fat from glucose” value (“Power for synthesis” below) is given as 10,248 cpm/g and the activation at 20 µg/mL was 48%.

In the case of `CC(C)=CCC[C@](C)(O[C@@H]1O[C@H](CO[C@@H]2O[C@@H](C)[C@H](O)[C@@H](O)[C@H]2O)[C@@H](O)[C@H](O)[C@H]1O)[C@H]1CC[C@]2(C)[C@@H]1[C@H](O)C[C@@H]1[C@@]3(C)CC[C@H](O[C@@H]4O[C@H](CO[C@@H]5O[C@@H](C)[C@H](O)[C@@H](O)[C@H]5O)[C@@H](O)[C@H](O)[C@H]4O)C(C)(C)[C@@H]3CC[C@]12C` [gynosaponin G, 20S-Protopanaxadiol-3,20-bis-O-[α-L-rhamnopyranosyl (1→6)-β-D-glucopyranoside]], in the experiment with fat cells [1], the “Free fatty acid formed” value was 5.8 μ Eq/g and the inhibition at 20 µg/mL was 31%. In the experiment with fat cells [2], the inhibition at 20 µg/mL was 2% and the “Free fatty acid formed” value was 13.8 μ Eq/g. Further, in the experiment on fat cells [3], the “Power for synthesis” value is recorded as 8,925 cpm/g and the activation at 20 µg/mL is 42%.

For the compound `CC(C)=CCC[C@](C)(O[C@@H]1O[C@H](CO[C@@H]2OC[C@@H](O)[C@H](O)[C@H]2O)[C@@H](O)[C@H](O)[C@H]1O)[C@H]1CC[C@]2(C)[C@@H]1[C@H](O)C[C@@H]1[C@@]3(C)CC[C@H](O[C@@H]4O[C@H](CO)[C@@H](O)[C@H](O)[C@H]4O)C(C)(C)[C@@H]3CC[C@]12C` [gynosaponin I, 20S-Protopanaxadiol-3-O-β-D-glucopyranoside-20-O-[β-D-xylopyranosyl (1→6)-β-D-glucopyranoside]], in the experiment on fat cells [1], the “Free fatty acid formed” value is listed as 6.6 μ Eq/g and the inhibition at 20 µg/mL amounted to 21%. Also, in the experiment with fat cells [2], the inhibition at 20 µg/mL was found to be 10% and the “Free fatty acid formed” value was determined as 12.7 μ Eq/g. For the same compound, in the experiment on fat cells [3], the “Power for synthesis” value was 10,564 cpm/g and the activation at 20 µg/mL stood at 49%.

Take `CC(C)=CCC[C@](C)(O[C@@H]1O[C@H](CO[C@@H]2O[C@@H](C)[C@H](O)[C@@H](O)[C@H]2O)[C@@H](O)[C@H](O)[C@H]1O)[C@H]1CC[C@]2(C)[C@@H]1[C@H](O)C[C@@H]1[C@@]3(C)CC[C@H](O[C@@H]4O[C@H](CO)[C@@H](O)[C@H](O)[C@H]4O)C(C)(C)[C@@H]3CC[C@]12C` [gynosaponin J, 20S-Protopanaxadiol-3-O-β-D-glucopyranoside-20-O-[α-L-rhamnopyranosyl (1→6)-β-D-glucopyranoside]]: in the experiment with fat cells [1], the “Free fatty acid formed” value worked out at 5.3 μ Eq/g and the inhibition at 20 µg/mL came to 37%. In addition, in the experiment with fat cells [2], the inhibition at 20 µg/mL came out at 7% and the “Free fatty acid formed” value turned out to be 13.1 μ Eq/g. Further, in the experiment with fat cells [3], the “Power for synthesis” value is reported as 11,650 cpm/g and the activation at 20 µg/mL turned out to be 54%.

Take `CC(C)=CCC[C@](C)(O[C@@H]1O[C@H](CO)[C@@H](O)[C@H](O)[C@H]1O)[C@H]1CC[C@]2(C)[C@@H]1[C@H](O)C[C@@H]1[C@@]3(C)CC[C@H](O[C@@H]4O[C@H](CO[C@@H]5O[C@@H](C)[C@H](O)[C@@H](O)[C@H]5O)[C@@H](O)[C@H](O)[C@H]4O)C(C)(C)[C@@H]3CC[C@]12C` [gynosaponin K, 20S-Protopanaxadiol-3-O-[α-L-rhamnopyranosyl (1→6)-β-D-glucopyranoside]-20-O-β-D-glucopyranoside]: in the experiment with fat cells [1], the “Free fatty acid formed” value is listed as 6.1 μ Eq/g and the inhibition at 20 µg/mL is 27%. In the experiment on fat cells [2], the inhibition at 20 µg/mL came to 2% and the “Free fatty acid formed” value was determined as 13.8 μ Eq/g. Besides, in the experiment on fat cells [3], the “Power for synthesis” value is listed as 13,600 cpm/g and the activation at 20 µg/mL is 63%.

With `CC(C)=CCC[C@](C)(O[C@@H]1O[C@H](CO[C@@H]2OC[C@@H](O)[C@H](O)[C@H]2O)[C@@H](O)[C@H](O)[C@H]1O)[C@H]1CC[C@]2(C)[C@@H]1[C@H](O)C[C@@H]1[C@@]3(C)CC[C@H](O)C(C)(C)[C@@H]3CC[C@]12C` [gynosaponin M, 20S-Protopanaxadiol-20-O-[β-D-xylopyranosyl (1→6)-β-D-glucopyranoside]], in the experiment on fat cells [1], the “Free fatty acid formed” value was determined as 6.4 μ Eq/g and the inhibition at 20 µg/mL stood at 24%. Besides, in the experiment on fat cells [2], the inhibition at 20 µg/mL is 4% and the “Free fatty acid formed” value is recorded as 13.5 μ Eq/g. In addition, in the experiment with fat cells [3], the “Power for synthesis” value is on record as 12,650 cpm/g and the activation at 20 µg/mL came to 59%.

As for `CC(C)=CCC[C@](C)(O[C@@H]1O[C@H](CO[C@@H]2O[C@@H](C)[C@H](O)[C@@H](O)[C@H]2O)[C@@H](O)[C@H](O)[C@H]1O)[C@H]1CC[C@]2(C)[C@@H]1[C@H](O)C[C@@H]1[C@@]3(C)CC[C@H](O)C(C)(C)[C@@H]3CC[C@]12C` [gynosaponin N, 20S-Protopanaxadiol-20-O-[α-L-rhamnopyranosyl (1→6)-β-D-glucopyranoside]], in the experiment on fat cells [1], the “Free fatty acid formed” value turned out to be 5.2 μ Eq/g and the inhibition at 20 µg/mL was found to be 38%. In the experiment on fat cells [2], the inhibition at 20 µg/mL stood at 6% and the “Free fatty acid formed” value is listed as 13.3 μ Eq/g. Moreover, in the experiment with fat cells [3], the “Power for synthesis” value is recorded as 9,870 cpm/g and the activation at 20 µg/mL came to 46%.
